Patent publication US8492401B2, “Thiazolopyridine sirtuin modulating compounds” (Sirtris Pharmaceuticals, priority 2008, dated 2013)

Target: T1, SIRT1 (Homo sapiens, UniProt Q96EB6)
T1 sequence (Q96EB6 1-747): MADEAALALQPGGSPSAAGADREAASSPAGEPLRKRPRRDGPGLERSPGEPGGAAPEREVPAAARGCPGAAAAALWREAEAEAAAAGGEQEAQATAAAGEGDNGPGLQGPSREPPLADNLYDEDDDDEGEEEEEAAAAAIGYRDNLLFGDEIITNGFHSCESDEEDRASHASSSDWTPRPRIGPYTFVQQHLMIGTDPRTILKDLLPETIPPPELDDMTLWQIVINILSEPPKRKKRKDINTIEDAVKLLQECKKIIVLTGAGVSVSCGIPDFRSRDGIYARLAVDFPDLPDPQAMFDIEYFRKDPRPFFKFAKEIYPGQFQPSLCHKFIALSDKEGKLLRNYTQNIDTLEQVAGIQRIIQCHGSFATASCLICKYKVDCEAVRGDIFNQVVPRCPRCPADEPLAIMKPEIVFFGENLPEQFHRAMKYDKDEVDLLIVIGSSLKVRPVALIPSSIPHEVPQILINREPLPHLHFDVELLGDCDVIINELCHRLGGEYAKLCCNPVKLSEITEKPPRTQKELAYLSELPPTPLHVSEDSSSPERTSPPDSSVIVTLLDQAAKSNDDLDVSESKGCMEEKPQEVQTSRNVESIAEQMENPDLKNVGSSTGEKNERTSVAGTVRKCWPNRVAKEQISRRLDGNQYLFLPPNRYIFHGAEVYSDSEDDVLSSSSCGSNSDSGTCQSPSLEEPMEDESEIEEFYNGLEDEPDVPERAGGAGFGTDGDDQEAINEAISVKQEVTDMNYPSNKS
Experiment: Mass spectrometry based assay to identify modulators (activators) of SIRT1 activity
Format: biochemical
Conditions: 0.5 μM peptide substrate, 120 μM βNAD+, 10 nM SIRT1, 25 minutes at 25° C.; for EC1.5: SIRT1 activation
Text: A mass spectrometry based assay was used to identify modulators of SIRT1 activity. The mass spectrometry based assay utilizes a peptide having 20 amino acid residues as follows: Ac-EE-K(biotin)-GQSTSSHSK(Ac)NleSTEG-K(5TMR)-EE-NH2 (SEQ ID NO: 1) wherein K(Ac) is an acetylated lysine residue and Nle is a norleucine. The peptide is labeled with the fluorophore 5TMR (excitation 540 nm/emission 580 nm) at the C-terminus. The sequence of the peptide substrate is based on p53 with several modifications. In addition, the methionine residue naturally present in the sequence was replaced with the norleucine because the methionine may be susceptible to oxidation during synthesis and purification.
The mass spectrometry assay is conducted as follows: 0.5 μM peptide substrate and 120 μM βNAD^+ is incubated with 10 nM SIRT1 for 25 minutes at 25° C. in a reaction buffer (50 mM Tris-acetate pH 8, 137 mM NaCl, 2.7 mM KCl, 1 mM MgCl2, 5 mM DTT, 0.05% BSA). Test compounds may be added to the reaction as described above. […] After the 25 minute incubation with SIRT1, 10 μL of 10% formic acid is added to stop the reaction. Reactions are sealed and frozen for later mass spec analysis. Determination of the mass of the substrate peptide allows for precise determination of the degree of acetylation (i.e. starting material) as compared to deacetylated peptide (product).
A control for inhibition of sirtuin activity is conducted by adding 1 μL of 500 mM nicotinamide as a negative control at the start of the reaction (e.g., permits determination of maximum sirtuin inhibition). A control for activation of sirtuin activity is conducted using 10 nM of sirtuin protein, with 1 μL of DMSO in place of compound, to determine the amount of deacetylation of the substrate at a given timepoint within the linear range of the assay. This timepoint is the same as that used for test compounds and, within the linear range, the endpoint represents a change in velocity.
For the above assay, SIRT1 protein was expressed and purified as follows. […] The protein was expressed by induction with 1 mM IPTG as an N-terminal His-tag fusion protein at 18° C. overnight and harvested at 30,000×g. Cells were lysed with lysozyme in lysis buffer (50 mM Tris-HCl, 2 mM Tris[2-carboxyethyl]phosphine (TCEP), 10 μM ZnCl2, 200 mM NaCl) and further treated with sonication for 10 min for complete lysis. The protein was purified over a Ni-NTA column (Amersham) and fractions containing pure protein were pooled, concentrated and run over a sizing column (Sephadex S200 26/60 global). The peak containing soluble protein was collected and run on an Ion-exchange column (MonoQ). Gradient elution (200 mM-500 mM NaCl) yielded pure protein. This protein was concentrated and dialyzed against dialysis buffer (20 mM Tris-HCl, 2 mM TCEP) overnight. The protein was aliquoted and frozen at −80° C. until further use.
Sirtuin modulating compounds that activated SIRT1 were identified using the assay described above and are shown below in Table 1. The EC1.5 values for the activating compounds are represented by A (EC1.5≦1 uM), B (EC1.5>1 and ≦10 uM), or C (EC1.5>10 uM). The percent maximum fold activation is represented by A (Fold activation≧300%), B (Fold Activation≧150% and <300%), or C (Fold Activation<150%).

Row | FOLD ACT. (percent maximum fold activation) | EC1.5 | Compound
1 | C (Fold Activation<150%) | C (EC1.5>10 uM) | O=C(Nc1ccccc1-c1nc2cccnc2s1)c1nc(-c2ccccc2)oc1CN1CCOCC1 [Compound 18, 5-(morpholinomethyl)-2-phenyl-N-(2-(thiazolo[5,4-b]pyridin-2-yl)phenyl)oxazole-4-carboxamide]
2 | B (Fold Activation≧150% and <300%) | A (EC1.5≦1 uM) | COCCN1CCN(Cc2cnc3sc(-c4ccccc4NC(=O)c4nc(-c5ccccc5)oc4C)nc3c2)CC1 [Compound 15, N-(2-(6-((4-(2-methoxyethyl)piperazin-1-yl)methyl)thiazolo[5,4-b]pyridin-2-yl)phenyl)-5-methyl-2-phenyloxazole-4-carboxamide]
3 | B (Fold Activation≧150% and <300%) | A (EC1.5≦1 uM) | O=C(Nc1ccccc1-c1nc2cc(CN3CCCC3)cnc2s1)c1csc(-c2ccccc2)n1 [Compound 3, 2-phenyl-N-(2-(6-(pyrrolidin-1-ylmethyl)thiazolo[5,4-b]pyridin-2-yl)phenyl)thiazole-4-carboxamide]
4 | A (Fold activation≧300%) | A (EC1.5≦1 uM) | COCCN1CCN(Cc2sc(-c3ccccc3)nc2C(=O)Nc2ccccc2-c2nc3cccnc3s2)CC1 [Compound 12, 5-((4-(2-methoxyethyl)piperazin-1-yl)methyl)-2-phenyl-N-(2-(thiazolo[5,4-b]pyridin-2-yl)phenyl)thiazole-4-carboxamide]
5 | B (Fold Activation≧150% and <300%) | A (EC1.5≦1 uM) | O=C(Nc1ccccc1-c1nc2cccnc2s1)c1nc(-c2ccccc2)sc1CN1CCOCC1 [Compound 10, 5-(morpholinomethyl)-2-phenyl-N-(2-(thiazolo[5,4-b]pyridin-2-yl)phenyl)thiazole-4-carboxamide]
6 | B (Fold Activation≧150% and <300%) | B (EC1.5>1 and ≦10 uM) | O=C(Nc1ccccc1-c1nc2cccnc2s1)c1nc(-c2ccccc2)oc1CN1CCCC1 [Compound 20, 2-phenyl-5-(pyrrolidin-1-ylmethyl)-N-(2-(thiazolo[5,4-b]pyridin-2-yl)phenyl)oxazole-4-carboxamide]
7 | B (Fold Activation≧150% and <300%) | A (EC1.5≦1 uM) | O=C(Nc1ccccc1-c1nc2cc(CN3CCCC3)cnc2s1)c1nc(-c2ccccc2)cs1 [Compound 22, 4-phenyl-N-(2-(6-(pyrrolidin-1-ylmethyl)thiazolo[5,4-b]pyridin-2-yl)phenyl)thiazole-2-carboxamide]
8 | A (Fold activation≧300%) | A (EC1.5≦1 uM) | COCCN1CCN(Cc2cnc3sc(-c4ccccc4NC(=O)c4csc(-c5ccccc5)n4)nc3c2)CC1 [Compound 1, N-(2-(6-((4-(2-methoxyethyl)piperazin-1-yl)methyl)thiazolo[5,4-b]pyridin-2-yl)phenyl)-2-phenylthiazole-4-carboxamide]
9 | B (Fold Activation≧150% and <300%) | A (EC1.5≦1 uM) | COCCN1CCN(CCCc2sc(-c3ccccc3)nc2C(=O)Nc2ccccc2-c2nc3cccnc3s2)CC1 [Compound 7, 5-(3-(4-(2-methoxyethyl)piperazin-1-yl)propyl)-2-phenyl-N-(2-(thiazolo[5,4-b]pyridin-2-yl)phenyl)thiazole-4-carboxamide]
10 | A (Fold activation≧300%) | A (EC1.5≦1 uM) | O=C(Nc1ccccc1-c1nc2cc(CN3CCOCC3)cnc2s1)c1csc(-c2ccccc2)n1 [Compound 2, N-(2-(6-(morpholinomethyl)thiazolo[5,4-b]pyridin-2-yl)phenyl)-2-phenylthiazole-4-carboxamide]
11 | C (Fold Activation<150%) | C (EC1.5>10 uM) | COCCN1CCN(Cc2oc(-c3ccccc3)nc2C(=O)Nc2ccccc2-c2nc3cccnc3s2)CC1 [Compound 19, 5-((4-(2-methoxyethyl)piperazin-1-yl)methyl)-2-phenyl-N-(2-(thiazolo[5,4-b]pyridin-2-yl)phenyl)oxazole-4-carboxamide]
12 | A (Fold activation≧300%) | B (EC1.5>1 and ≦10 uM) | Cc1oc(-c2ccccc2)nc1C(=O)Nc1ccccc1-c1nc2cc(CN3CCCC3)cnc2s1 [Compound 17, 5-methyl-2-phenyl-N-(2-(6-(pyrrolidin-1-ylmethyl)thiazolo[5,4-b]pyridin-2-yl)phenyl)oxazole-4-carboxamide]
13 | A (Fold activation≧300%) | A (EC1.5≦1 uM) | CC(C)N1CCN(Cc2sc(-c3ccccc3)nc2C(=O)Nc2ccccc2-c2nc3cccnc3s2)CC1 [Compound 9, 5-((4-isopropylpiperazin-1-yl)methyl)-2-phenyl-N-(2-(thiazolo[5,4-b]pyridin-2-yl)phenyl)thiazole-4-carboxamide]
14 | A (Fold activation≧300%) | A (EC1.5≦1 uM) | COCCN1CCN(Cc2cnc3sc(-c4ccccc4NC(=O)c4nc(-c5ccccc5)cs4)nc3c2)CC1 [Compound 23, N-(2-(6-((4-(2-methoxyethyl)piperazin-1-yl)methyl)thiazolo[5,4-b]pyridin-2-yl)phenyl)-4-phenylthiazole-2-carboxamide]
15 | B (Fold Activation≧150% and <300%) | B (EC1.5>1 and ≦10 uM) | COCCCc1sc(-c2ccccc2)nc1C(=O)Nc1ccccc1-c1nc2cccnc2s1 [Compound 6, 5-(3-methoxypropyl)-2-phenyl-N-(2-(thiazolo[5,4-b]pyridin-2-yl)phenyl)thiazole-4-carboxamide]
16 | B (Fold Activation≧150% and <300%) | A (EC1.5≦1 uM) | COCCCc1sc(-c2ccccc2)nc1C(=O)Nc1ccccc1-c1nc2cc(CN3CCCC3)cnc2s1 [Compound 4, 5-(3-methoxypropyl)-2-phenyl-N-(2-(6-(pyrrolidin-1-ylmethyl)thiazolo[5,4-b]pyridin-2-yl)phenyl)thiazole-4-carboxamide]
17 | C (Fold Activation<150%) | C (EC1.5>10 uM) | CC(C)(C)OC(=O)N1CCN(Cc2oc(-c3ccccc3)nc2C(=O)Nc2ccccc2-c2nc3cccnc3s2)CC1 [Compound 21, tert-butyl 4-((2-phenyl-4-(2-(thiazolo[5,4-b]pyridin-2-yl)phenylcarbamoyl)oxazol-5-yl)methyl)piperazine-1-carboxylate]
18 | C (Fold Activation<150%) | B (EC1.5>1 and ≦10 uM) | O=C(Nc1ccccc1-c1nc2cccnc2s1)c1nc(-c2ccccc2)sc1CN1CCCC1 [Compound 11, 2-phenyl-5-(pyrrolidin-1-ylmethyl)-N-(2-(thiazolo[5,4-b]pyridin-2-yl)phenyl)thiazole-4-carboxamide]
